# Calls of active or inactive are those of the source.
# How the values were obtained:
# [1] = molecular target: Steroidogenic factor 1 (Homo sapiens, UniProt Q13285); assay: Counterscreen for inverse agonists of the liver receptor homolog-1 (LRH-1; NR5A2): Luminescence-based cell-based high throughput dose response assay to identify inverse agonists of the Steroidogenic Factor 1 Nuclear Receptor (SF1; NR5A1).; type: functional
# [2] = molecular target: Nuclear receptor subfamily 5 group A member 2 (Homo sapiens, UniProt O00482); type: functional, cell-based;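 further: HEK293T cells transfected with LRH-1 and a StAR promoter luciferase reporter; potency for inhibitors that lower LRH-1 driven reporter light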
# [3] = StAR promoter reporter inhibition counter-screen, dose response, counter-screen for LRH-1 inverse agonist project, cell-based, luminescence, luciferase reporter (AID 651969); type: functional
# [4] = molecular target: Protein Wnt-3a (Mus musculus, UniProt P27467); assay: Wnt3a-driven reporter signaling inhibition, dose response, selectivity assay for Gli-SUFU antagonist project, Wnt-LIGHT cells, luminescence (AID 651570); type: functional; conditions: read-out: IC50_Mean;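 further: Wnt-LIGHT reporter cells stimulated with conditioned medium from Wnt3a-producing cells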
# [5] = control 3'UTR Renilla luciferase suppression, dose response, counter-screen for Shn3 inhibitor project, cell-based, Clone20-Shn3RL, cherry-picked (AID 624133); type: functional
# [6] = system: INS1; assay: beta cell apoptosis inhibitors, cytokine rescue, dose response, luminescence, retest (AID 449756); type: functional, cell-based; conditions: Rattus norvegicus;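 further: cell death triggered by IL-1 beta plus TNF-alpha plus IFN-gamma mixture; protective hits raise ATP signal compared with cytokine alone wells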
# [7] = Shn3 3'UTR reporter inhibitors, dose response, cell-based, Clone20 osteoblasts, firefly luciferase, cherry-picked (AID 624132); type: functional;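 further: firefly luciferase luminescence from reporter carrying the Shn3 3'UTR in osteoblasts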
# [8] = cytotoxicity in MIN6 insulinoma cells, dose response, cytotoxicity control, cell-based, mouse insulinoma (AID 2122); type: functional;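 further: confirmatory high-throughput counterscreen run to flag cytotoxic compounds; mouse MIN-6 beta cells carrying an insulin promoter eGFP reporter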
# [9] = HepG2 cell cytotoxicity, dose response, cytotoxicity control for Shn3 inhibitor project, CellTiter-Glo, cherry-picked (AID 624134); type: functional, cell-based
# [10] = insulin promoter down-regulators in MIN6 cells, imaging, high-content screening, mouse beta cells (AID 1628); type: functional
# [11] = system: Vero; assay: cells; type: functional, cell-based; conditions: Chlorocebus sabaeus
# [12] = system: A-375; assay: MITF: Counter assay: A375 proliferation Measured in Cell-Based System Using Plate Reader - 2084-03_Inhibitor_Dose_DryPowder_Activity. [Related pubchem assays (depositor defined):AID488944]; type: functional; conditions: Homo sapiens
# [13] = system: HEK293; assay: cells; conditions: Homo sapiens
# [14] = molecular target: T1, Microphthalmia-associated transcription factor (Homo sapiens, UniProt O75030); assay: TRPM1 promoter luciferase signal decrease, dose response, MITF inhibitor project, cell-based, SK-MEL-5, cherry-picked, set 3 (AID 493073); type: functional
# T1 sequence (O75030 whole entry): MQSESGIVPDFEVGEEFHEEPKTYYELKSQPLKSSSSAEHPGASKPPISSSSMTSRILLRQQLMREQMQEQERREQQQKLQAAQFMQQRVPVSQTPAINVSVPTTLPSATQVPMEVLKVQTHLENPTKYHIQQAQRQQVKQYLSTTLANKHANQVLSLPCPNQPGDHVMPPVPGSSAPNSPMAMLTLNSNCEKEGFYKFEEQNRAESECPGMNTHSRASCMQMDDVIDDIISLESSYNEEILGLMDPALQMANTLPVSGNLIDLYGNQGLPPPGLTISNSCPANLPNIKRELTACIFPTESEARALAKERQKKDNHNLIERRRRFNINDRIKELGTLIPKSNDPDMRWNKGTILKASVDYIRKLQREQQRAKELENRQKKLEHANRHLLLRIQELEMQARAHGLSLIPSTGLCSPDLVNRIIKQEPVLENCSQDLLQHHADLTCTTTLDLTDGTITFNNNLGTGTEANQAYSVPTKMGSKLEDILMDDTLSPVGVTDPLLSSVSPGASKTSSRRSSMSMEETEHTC
# [15] = Luminescence Cell-Based Dose Retest to Confirm Inhibitors of Cancer Stem Cells. [Related pubchem assays (depositor defined):AID2717, AID2721]; type: functional; conditions: Homo sapiens
# [16] = system: Vero; assay: cells; type: functional; conditions: Chlorocebus sabaeus
# [17] = system: HEK293; assay: cells; conditions: Homo sapiens; remark: listed apart in the source
# [18] = molecular target: T2, Apoptotic protease-activating factor 1 (Homo sapiens, UniProt O14727); type: functional
# T2 sequence (O14727 whole entry): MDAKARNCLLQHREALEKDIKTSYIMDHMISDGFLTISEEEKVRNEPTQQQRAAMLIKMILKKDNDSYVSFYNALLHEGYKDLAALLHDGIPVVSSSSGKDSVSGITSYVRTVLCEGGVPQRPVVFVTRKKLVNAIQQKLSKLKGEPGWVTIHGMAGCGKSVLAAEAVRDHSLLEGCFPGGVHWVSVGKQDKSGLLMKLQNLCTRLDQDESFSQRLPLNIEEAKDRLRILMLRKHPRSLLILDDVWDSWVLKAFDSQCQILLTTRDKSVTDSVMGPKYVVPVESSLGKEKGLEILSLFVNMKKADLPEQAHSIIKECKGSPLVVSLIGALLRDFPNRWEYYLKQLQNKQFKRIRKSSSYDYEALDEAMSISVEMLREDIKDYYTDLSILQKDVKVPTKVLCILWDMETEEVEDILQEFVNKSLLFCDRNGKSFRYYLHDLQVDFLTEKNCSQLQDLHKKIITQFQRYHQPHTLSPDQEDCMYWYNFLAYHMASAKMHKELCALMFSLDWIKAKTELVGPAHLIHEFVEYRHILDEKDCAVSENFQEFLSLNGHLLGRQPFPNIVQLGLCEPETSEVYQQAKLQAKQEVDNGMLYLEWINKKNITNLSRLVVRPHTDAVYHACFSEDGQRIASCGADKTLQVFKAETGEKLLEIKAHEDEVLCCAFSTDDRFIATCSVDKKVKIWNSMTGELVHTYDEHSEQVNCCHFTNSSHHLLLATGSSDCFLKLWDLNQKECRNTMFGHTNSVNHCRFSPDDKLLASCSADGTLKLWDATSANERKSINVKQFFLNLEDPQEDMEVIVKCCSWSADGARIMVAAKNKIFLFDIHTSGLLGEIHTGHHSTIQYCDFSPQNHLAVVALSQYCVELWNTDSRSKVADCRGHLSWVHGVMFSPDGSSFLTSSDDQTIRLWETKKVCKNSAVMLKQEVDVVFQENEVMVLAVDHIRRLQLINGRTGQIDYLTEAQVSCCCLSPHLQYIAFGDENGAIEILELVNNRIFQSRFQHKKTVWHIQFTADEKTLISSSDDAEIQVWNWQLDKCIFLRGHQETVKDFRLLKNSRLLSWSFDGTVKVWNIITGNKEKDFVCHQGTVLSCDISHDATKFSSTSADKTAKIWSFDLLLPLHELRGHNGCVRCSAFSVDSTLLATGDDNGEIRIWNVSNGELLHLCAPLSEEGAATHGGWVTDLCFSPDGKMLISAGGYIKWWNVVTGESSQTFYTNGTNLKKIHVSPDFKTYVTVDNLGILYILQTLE
# [19] = molecular target: Induced myeloid leukemia cell differentiation protein Mcl-1 (Homo sapiens, UniProt Q07820); type: functional
# [20] = molecular target: Glucose-6-phosphate 1-dehydrogenase (Homo sapiens, UniProt P11413); assay: human G6PD enzyme inhibitors, dose response, selectivity assay for P. falciparum G6PD inhibitor project, biochemical, fluorescence (AID 504792); type: functional
# [21] = molecular target: Genome polyprotein (dengue virus type 2, UniProt P29990); assay: Dengue-2 NS5 methyltransferase inhibitors, primary screen, biochemical, confirmation dose response (AID 588689); type: functional
# [22] = molecular target: Nonstructural protein 1 (Influenza A virus, UniProt Q194T2); type: functional, Influenza A virus (A/California/07/2009(H1N1))
# [23] = molecular target: T3, Mannose-6-phosphate isomerase (Homo sapiens, UniProt P34949); assay: human PMI inhibitors, high substrate, primary screen, biochemical, fluorescence intensity, high mannose 6-phosphate (AID 1220)
# T3 sequence (P34949 whole entry): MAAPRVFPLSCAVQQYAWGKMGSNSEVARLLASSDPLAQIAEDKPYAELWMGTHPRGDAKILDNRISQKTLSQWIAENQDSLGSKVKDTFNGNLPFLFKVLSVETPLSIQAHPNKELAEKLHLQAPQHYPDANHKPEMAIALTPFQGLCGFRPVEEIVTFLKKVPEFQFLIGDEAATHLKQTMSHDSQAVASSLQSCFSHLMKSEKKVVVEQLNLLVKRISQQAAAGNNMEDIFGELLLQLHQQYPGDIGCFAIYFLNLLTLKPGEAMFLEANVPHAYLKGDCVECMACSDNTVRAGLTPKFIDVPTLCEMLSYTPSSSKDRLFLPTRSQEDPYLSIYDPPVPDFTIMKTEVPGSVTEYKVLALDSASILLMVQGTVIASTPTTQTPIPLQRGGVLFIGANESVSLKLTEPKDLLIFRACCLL
# [24] = molecular target: Eukaryotic translation initiation factor 4E (Mus musculus, UniProt P63073); assay: eIF4E–eIF4G protein interaction inhibitors, dose response, biochemical, TR-FRET (AID 855); type: functional;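 further: potency for disrupting eIF4E binding to eIF4GI seen as loss of FRET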
# [25] = system: Vero; assay: Vero cell cytotoxicity, cytotoxicity control for flavivirus capping enzyme inhibitors (AID 588742); type: functional; conditions: Chlorocebus sabaeus
# Protein Wnt-3a, sequence (P27467 whole entry): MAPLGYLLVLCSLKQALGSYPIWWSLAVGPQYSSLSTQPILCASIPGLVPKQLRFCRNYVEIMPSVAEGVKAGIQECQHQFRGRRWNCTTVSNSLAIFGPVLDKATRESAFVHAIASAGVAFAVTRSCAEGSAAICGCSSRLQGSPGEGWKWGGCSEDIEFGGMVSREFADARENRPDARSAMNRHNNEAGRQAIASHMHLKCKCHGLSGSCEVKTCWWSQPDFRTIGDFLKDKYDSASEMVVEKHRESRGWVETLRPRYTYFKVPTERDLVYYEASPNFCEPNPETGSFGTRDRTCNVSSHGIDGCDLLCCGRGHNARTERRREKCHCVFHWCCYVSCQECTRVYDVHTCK
# Steroidogenic factor 1, sequence (Q13285 whole entry): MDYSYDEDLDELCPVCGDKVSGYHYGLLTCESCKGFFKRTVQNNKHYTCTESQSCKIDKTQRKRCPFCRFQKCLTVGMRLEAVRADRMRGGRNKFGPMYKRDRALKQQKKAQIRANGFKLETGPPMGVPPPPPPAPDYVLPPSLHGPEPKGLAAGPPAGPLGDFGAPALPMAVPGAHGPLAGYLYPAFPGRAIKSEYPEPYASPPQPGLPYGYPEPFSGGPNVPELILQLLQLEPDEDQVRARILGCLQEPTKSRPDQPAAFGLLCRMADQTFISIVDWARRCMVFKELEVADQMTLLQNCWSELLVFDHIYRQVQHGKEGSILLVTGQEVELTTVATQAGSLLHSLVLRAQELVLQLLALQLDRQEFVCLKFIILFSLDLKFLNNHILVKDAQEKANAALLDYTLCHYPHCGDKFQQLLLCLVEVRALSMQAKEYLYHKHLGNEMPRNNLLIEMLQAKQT
# Nonstructural protein 1, sequence (Q194T2 whole entry): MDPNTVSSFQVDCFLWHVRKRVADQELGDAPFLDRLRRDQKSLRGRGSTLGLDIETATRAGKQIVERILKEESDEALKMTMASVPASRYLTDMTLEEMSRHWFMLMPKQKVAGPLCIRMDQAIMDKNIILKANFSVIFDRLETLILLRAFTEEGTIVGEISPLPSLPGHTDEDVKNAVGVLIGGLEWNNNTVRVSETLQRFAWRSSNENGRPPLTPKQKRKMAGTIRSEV
# Genome polyprotein, sequence (P29990 2492-3391 limits assumed): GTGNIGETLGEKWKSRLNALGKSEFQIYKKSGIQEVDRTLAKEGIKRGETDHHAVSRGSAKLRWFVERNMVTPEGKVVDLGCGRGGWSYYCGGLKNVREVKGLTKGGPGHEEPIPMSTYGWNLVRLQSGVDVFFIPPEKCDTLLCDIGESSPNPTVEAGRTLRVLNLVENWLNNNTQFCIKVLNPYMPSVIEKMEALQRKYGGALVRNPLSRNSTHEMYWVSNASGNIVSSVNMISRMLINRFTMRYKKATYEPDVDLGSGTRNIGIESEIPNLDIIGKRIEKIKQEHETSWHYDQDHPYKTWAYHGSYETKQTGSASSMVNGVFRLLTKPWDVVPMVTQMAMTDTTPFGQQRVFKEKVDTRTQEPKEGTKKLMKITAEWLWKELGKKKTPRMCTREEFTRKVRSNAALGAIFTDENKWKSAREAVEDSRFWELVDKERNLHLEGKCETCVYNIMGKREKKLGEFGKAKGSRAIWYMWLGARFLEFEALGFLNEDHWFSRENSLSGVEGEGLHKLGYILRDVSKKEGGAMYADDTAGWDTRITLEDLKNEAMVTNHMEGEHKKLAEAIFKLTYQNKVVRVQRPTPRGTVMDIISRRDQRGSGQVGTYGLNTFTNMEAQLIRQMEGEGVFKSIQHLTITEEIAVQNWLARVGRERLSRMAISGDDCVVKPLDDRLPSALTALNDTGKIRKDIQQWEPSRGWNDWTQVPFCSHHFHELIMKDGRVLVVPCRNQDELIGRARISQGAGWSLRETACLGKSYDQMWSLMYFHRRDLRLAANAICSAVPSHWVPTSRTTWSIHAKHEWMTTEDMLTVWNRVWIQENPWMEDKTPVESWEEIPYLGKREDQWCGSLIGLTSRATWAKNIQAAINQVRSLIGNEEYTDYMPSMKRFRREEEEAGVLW
# Eukaryotic translation initiation factor 4E, sequence (P63073 whole entry): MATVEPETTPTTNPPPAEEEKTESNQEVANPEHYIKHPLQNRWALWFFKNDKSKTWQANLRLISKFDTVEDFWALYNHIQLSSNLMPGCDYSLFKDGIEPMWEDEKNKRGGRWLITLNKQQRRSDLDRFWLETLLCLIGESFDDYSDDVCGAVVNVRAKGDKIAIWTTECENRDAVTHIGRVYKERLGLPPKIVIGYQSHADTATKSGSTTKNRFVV
# Glucose-6-phosphate 1-dehydrogenase, sequence (P11413 whole entry): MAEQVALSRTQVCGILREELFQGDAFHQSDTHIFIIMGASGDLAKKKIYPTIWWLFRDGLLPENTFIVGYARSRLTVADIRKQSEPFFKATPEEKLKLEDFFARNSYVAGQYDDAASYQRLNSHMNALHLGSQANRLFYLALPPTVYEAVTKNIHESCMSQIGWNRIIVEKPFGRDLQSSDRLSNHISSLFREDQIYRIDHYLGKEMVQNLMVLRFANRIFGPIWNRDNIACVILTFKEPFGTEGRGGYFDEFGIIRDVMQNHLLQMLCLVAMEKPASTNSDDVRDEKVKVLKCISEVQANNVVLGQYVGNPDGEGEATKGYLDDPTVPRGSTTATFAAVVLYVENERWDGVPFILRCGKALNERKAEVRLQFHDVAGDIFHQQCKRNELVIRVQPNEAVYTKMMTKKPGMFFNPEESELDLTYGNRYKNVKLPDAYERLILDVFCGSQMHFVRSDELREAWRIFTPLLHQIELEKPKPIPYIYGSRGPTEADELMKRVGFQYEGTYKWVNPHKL
# Induced myeloid leukemia cell differentiation protein Mcl-1, sequence (Q07820 whole entry): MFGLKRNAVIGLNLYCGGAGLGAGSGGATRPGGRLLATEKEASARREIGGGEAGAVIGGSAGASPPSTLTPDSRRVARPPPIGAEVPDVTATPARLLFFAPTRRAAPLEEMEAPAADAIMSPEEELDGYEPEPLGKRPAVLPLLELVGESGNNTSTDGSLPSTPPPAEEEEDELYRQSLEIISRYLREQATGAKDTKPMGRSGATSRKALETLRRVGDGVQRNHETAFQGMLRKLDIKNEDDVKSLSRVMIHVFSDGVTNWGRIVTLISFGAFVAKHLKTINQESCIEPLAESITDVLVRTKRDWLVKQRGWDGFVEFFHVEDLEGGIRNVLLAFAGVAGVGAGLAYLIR
# Nuclear receptor subfamily 5 group A member 2, sequence (O00482 whole entry): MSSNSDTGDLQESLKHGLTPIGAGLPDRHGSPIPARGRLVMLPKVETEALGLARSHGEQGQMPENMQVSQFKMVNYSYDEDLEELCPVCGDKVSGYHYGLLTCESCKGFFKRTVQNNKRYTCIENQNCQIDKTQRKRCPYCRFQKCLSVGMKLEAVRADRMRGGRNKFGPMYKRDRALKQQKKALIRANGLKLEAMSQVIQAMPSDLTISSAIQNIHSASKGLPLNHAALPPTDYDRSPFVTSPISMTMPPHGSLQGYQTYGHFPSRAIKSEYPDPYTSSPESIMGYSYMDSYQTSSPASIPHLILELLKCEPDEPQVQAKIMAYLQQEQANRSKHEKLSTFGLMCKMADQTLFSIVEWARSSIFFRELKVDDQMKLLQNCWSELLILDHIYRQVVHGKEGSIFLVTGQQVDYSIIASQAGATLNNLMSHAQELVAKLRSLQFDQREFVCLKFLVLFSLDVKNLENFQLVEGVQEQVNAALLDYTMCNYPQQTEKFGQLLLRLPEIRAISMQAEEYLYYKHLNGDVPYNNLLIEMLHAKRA
smiles,measurement,setting,value
COc1cccc(NC(=O)c2oc3ccccc3c2NC(=O)C2CC2)c1,IC50,[1],16 µM (inactive)
same,IC50,[2],35.9 µM (inactive)
same,IC50,[3],35.9 µM (inactive)
CCn1c(C)nc2cc(-c3nnc(-c4c(-c5ccccc5)noc4C)o3)ccc21,IC50,[4],2.59 µM (active)
same,AC50,[5],5.96 µM (active)
same,AC50,[6],5.72 µM (active)
same,AC50,[7],5.82 µM (active)
O=C(c1cc2sccc2n1Cc1ccccc1)N1CCN(c2nc3ccccc3s2)CC1,IC50,[4],2.68 µM (active)
same,AC50,[5],0.453 µM (active)
same,AC50,[6],3.56 µM (active)
same,IC50,[8],779 nM (active)
same,AC50,[9],2.92 µM (active)
same,AC50,[7],1.09 µM (active)
same,IC50,[10],735 nM (active)
N#C/C(=C\C=C\c1ccccc1[N+](=O)[O-])C(=O)NC1CCCCC1,IC50,[11],17 µM (active)
same,AC50,[12],25.9 µM (active)
same,EC50,[13],> 59.7 µM (inactive)
same,AC50,[14],7.8 µM (active)
same,AC50,[15],5.33 µM (active)
same,CC50,[16],> 25 µM (active)
same,EC50,[17],> 59.7 µM (inactive)
CCOc1cc(CNc2ccc(N3CCCC3)cc2)cc(Cl)c1OC,IC50,[18],> 100 µM (inactive)
same,IC50,[19],2.43 µM (not active)
same,IC50,[20],> 80 µM (inactive)
same,IC50,[21],48.2 µM (active)
same,IC50,[22],20.7 µM (active)
same,IC50,[23],8.91 µM (active)
same,IC50,[24],> 64 µM (inactive)
same,CC50,[25],> 40 µM (active)
